# Assays:
# [1] = Inhibition of Mycobacterium smegmatis thioredoxin 6xHis-tagged decaprenylphosphoryl-beta-D-ribose2'-epimerase1 overexpressed in Escherichia coli rossetta cells using farnesyl-phosphoryl-beta-D-ribofuranose as substrate; set-up: species or system Mycolicibacterium smegmatis
# [2] = system: Mycobacterium tuberculosis; assay: Antimicrobial activity against Mycobacterium tuberculosis H37Rv ATCC 27294 assessed as growth inhibition after 5 days by microdilution method; format: functional; details: H37Rv ATCC 27294, 120 h
# Cytochrome P450 2D6 = Cytochrome P450 2D6 (Homo sapiens, UniProt P10635); assay: Inhibition of human CYP2D6; format: ADME
# Cytochrome P450 2C19 = Cytochrome P450 2C19 (Homo sapiens, UniProt P33261); assay: Inhibition of human CYP2C19; format: ADME
# Cytochrome P450 2C9 = Cytochrome P450 2C9 (Homo sapiens, UniProt P11712); assay: Inhibition of human CYP2C9; format: ADME
# Cytochrome P450 1A2 = molecular target: T1, Cytochrome P450 1A2 (Homo sapiens, UniProt P05177); assay: Inhibition of human CYP1A2; format: ADME
# T1 sequence (P05177 whole entry): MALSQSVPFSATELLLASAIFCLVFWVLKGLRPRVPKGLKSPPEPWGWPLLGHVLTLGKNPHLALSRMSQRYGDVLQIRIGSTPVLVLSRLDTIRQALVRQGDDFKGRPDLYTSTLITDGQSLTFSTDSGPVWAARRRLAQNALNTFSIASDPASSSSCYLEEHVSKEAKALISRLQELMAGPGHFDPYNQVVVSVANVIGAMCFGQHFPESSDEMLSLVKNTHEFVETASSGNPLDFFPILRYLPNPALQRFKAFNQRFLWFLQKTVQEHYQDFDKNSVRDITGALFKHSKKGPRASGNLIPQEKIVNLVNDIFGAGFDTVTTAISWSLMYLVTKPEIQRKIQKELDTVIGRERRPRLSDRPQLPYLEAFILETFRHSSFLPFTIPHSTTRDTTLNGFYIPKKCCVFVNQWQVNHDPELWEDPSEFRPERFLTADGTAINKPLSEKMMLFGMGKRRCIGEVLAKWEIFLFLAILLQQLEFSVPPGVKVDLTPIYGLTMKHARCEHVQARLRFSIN
# [3] = Unbound fraction in human plasma; format: ADME, cell-free
# [4] = Kinetic solubility of the compound in phosphate buffer at pH 7.4 after 24 hrs by LC-MS analysis; format: physicochemical; details: read-out: Kinetic_solubility
# [5] = Cytotoxicity against human A549 cells assessed as cell viability after 72 hrs by resazurin staining-based fluorimetric analysis; details: read-out: MIC
# [6] = system: Mycobacterium tuberculosis; assay: Bactericidal activity against hypoxia induced nonreplicating persistent Mycobacterium tuberculosis H37Rv after 7 days; format: functional; details: 168 h
# [7] = system: Mycobacterium tuberculosis; assay: Bactericidal activity against Mycobacterium tuberculosis H37Rv ATCC 27294 after 5 days by microdilution method; format: functional; details: H37Rv ATCC 27294, 120 h
# Cytochrome P450 3A4 = Cytochrome P450 3A4 (Homo sapiens, UniProt P08684); assay: Inhibition of human CYP3A4; format: ADME
# [8] = molecular target: Voltage-gated inwardly rectifying potassium channel KCNH2 (Homo sapiens, UniProt Q12809); assay: Inhibition of human ERG
# [9] = Inhibition of Mycobacterium smegmatis thioredoxin 6xHis-tagged decaprenylphosphoryl-beta-D-ribose2'-epimerase1 C394G mutant overexpressed in Escherichia coli rossetta cells using farnesyl-phosphoryl-beta-D-ribofuranose as substrate; set-up: species or system Mycolicibacterium smegmatis
# [10] = Inhibition of Mycobacterium smegmatis thioredoxin 6xHis-tagged decaprenylphosphoryl-beta-D-ribose2'-epimerase1 Y321H mutant overexpressed in Escherichia coli rossetta cells using farnesyl-phosphoryl-beta-D-ribofuranose as substrate; set-up: species or system Mycolicibacterium smegmatis
# [11] = system: Mycobacterium tuberculosis; assay: Antimicrobial activity against Mycobacterium tuberculosis H37Rv ATCC 27294 infected in BALB/C mouse chronic infection model assessed as reduced bacterial burden in lungs at 30 to 100 mg/kg, po administered on day 28 measured after 4 weeks; format: functional, Lung; details: dose mg/kg 30-100
# [12] = system: Mycobacterium tuberculosis; assay: Bactericidal activity against Mycobacterium tuberculosis H37Rv ATCC 27294 infected in human THP1 cells assessed as reduction in CFU at 1 to 4 times MIC by time-kill method; format: functional, THP-1
# [13] = system: Mycobacterium tuberculosis; assay: Bactericidal activity against Mycobacterium tuberculosis H37Rv ATCC 27294 infected in human THP1 cells assessed as reduction in CFU at 1 to 4 times MIC at day 10 by time-kill method; format: functional, THP-1
# [14] = system: Mycobacterium tuberculosis; assay: Bactericidal activity against hypoxia induced nonreplicating persistent Mycobacterium tuberculosis H37Rv assessed as reduction in CFU at 30 times MIC; format: functional
# Mus musculus = assay: fT>MIC in BALB/C mouse infected with Mycobacterium tuberculosis H37Rv ATCC 27294 at 50 to 200 mg/kg, po qd after 10 to 24 hrs
# [15] = AUC in BALB/C mouse infected with Mycobacterium tuberculosis H37Rv ATCC 27294 at 50 to 200 mg/kg, po qd administered for 24 days by LC-MS/MS analysis; format: ADME, organism-based; set-up: dose 50-200 mg/kg, route oral; details: plasma
# [16] = system: Mycobacterium tuberculosis; assay: Antimicrobial activity against po dosed Mycobacterium tuberculosis H37Rv ATCC 27294 infected BALB/C mouse chronic infection model assessed as reduced bacterial burden in lungs administered on day 28 measured after 4 weeks; format: functional, organism-based; details: Lung
# [17] = system: Mycobacterium tuberculosis; assay: Antimicrobial activity against po dosed Mycobacterium tuberculosis H37Rv ATCC 27294 infected BALB/C mouse acute infection model assessed as reduced bacterial burden in lungs administered 3 days postinfection measured after 4 weeks; format: functional, organism-based; details: Lung
# [18] = system: Mycobacterium tuberculosis; assay: Antimicrobial activity against Mycobacterium tuberculosis H37Rv ATCC 27294 infected in BALB/C mouse acute infection model assessed as reduced bacterial burden in lungs at 50 to 100 mg/kg, po administered 3 days postinfection measured after 4 weeks; format: functional, Lung; details: dose mg/kg 50-100
# Sequence of Voltage-gated inwardly rectifying potassium channel KCNH2 (Q12809 whole entry): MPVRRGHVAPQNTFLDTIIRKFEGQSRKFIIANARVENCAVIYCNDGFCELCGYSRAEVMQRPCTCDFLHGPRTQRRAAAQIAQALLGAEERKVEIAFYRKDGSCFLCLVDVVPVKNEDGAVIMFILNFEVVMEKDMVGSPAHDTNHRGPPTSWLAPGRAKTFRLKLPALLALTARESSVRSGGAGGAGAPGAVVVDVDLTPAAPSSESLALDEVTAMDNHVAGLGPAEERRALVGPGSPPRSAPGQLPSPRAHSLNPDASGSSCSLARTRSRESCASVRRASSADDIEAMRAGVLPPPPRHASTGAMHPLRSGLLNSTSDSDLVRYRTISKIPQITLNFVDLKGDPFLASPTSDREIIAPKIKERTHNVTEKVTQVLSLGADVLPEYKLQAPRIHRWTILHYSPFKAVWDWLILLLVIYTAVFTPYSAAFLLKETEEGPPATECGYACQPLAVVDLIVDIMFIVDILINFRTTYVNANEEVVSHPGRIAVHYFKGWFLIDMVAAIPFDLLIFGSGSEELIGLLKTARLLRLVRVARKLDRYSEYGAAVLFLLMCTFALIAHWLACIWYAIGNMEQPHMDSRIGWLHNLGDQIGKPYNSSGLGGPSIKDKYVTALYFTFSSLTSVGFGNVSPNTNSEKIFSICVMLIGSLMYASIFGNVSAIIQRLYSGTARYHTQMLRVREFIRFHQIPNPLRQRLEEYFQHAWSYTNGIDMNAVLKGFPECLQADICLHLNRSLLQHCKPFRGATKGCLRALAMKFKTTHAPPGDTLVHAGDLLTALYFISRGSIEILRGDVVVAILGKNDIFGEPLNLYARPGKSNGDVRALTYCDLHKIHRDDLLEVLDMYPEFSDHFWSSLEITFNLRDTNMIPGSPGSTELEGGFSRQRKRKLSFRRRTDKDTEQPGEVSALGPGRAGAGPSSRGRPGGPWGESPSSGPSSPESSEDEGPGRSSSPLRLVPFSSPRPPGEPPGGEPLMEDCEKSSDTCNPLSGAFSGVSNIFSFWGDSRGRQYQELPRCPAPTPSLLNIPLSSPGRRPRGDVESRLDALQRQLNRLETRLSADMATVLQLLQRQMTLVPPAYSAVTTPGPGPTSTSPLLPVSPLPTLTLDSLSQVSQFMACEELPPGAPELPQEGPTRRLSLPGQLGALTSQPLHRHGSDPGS
# Sequence of Cytochrome P450 2D6 (P10635 whole entry): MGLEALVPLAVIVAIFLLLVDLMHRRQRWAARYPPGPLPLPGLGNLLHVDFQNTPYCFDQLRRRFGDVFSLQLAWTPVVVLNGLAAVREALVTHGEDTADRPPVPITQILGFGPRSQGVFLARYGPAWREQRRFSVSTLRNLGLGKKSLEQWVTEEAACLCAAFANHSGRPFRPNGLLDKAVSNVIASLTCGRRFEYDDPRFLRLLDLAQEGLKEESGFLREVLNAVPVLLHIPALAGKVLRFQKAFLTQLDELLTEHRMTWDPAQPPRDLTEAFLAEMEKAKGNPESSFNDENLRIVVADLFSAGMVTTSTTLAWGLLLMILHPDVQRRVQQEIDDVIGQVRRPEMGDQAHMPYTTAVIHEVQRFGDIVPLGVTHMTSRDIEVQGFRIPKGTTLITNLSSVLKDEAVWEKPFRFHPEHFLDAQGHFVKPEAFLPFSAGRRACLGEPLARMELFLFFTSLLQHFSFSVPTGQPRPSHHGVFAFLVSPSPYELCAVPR
# Sequence of Cytochrome P450 3A4 (P08684 whole entry): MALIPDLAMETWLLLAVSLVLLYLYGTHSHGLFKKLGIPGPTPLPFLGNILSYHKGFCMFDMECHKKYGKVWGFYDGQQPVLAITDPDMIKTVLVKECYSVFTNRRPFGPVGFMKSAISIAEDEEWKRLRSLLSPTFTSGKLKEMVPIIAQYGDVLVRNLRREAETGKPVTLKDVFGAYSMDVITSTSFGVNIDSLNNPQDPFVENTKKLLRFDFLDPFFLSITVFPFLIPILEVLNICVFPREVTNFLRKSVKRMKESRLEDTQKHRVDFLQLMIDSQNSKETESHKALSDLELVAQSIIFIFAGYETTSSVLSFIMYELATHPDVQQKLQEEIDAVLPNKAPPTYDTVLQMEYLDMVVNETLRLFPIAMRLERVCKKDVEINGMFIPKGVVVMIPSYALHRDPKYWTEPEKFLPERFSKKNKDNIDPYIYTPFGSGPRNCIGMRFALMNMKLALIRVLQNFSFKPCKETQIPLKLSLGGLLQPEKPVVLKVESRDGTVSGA
# Sequence of Cytochrome P450 2C9 (P11712 whole entry): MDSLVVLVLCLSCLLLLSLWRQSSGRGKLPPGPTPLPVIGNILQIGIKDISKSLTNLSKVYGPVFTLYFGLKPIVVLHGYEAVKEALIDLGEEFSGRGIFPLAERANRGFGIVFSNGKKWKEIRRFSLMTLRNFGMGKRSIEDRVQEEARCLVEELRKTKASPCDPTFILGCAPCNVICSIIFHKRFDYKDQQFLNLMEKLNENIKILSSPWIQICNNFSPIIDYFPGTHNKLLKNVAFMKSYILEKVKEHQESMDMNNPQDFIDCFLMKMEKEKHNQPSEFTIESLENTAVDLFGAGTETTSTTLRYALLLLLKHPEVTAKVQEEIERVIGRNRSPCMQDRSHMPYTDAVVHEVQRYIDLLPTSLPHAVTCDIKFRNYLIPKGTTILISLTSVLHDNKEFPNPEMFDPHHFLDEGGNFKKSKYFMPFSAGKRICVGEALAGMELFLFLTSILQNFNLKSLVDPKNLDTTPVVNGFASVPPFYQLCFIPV
# Sequence of Cytochrome P450 2C19 (P33261 whole entry): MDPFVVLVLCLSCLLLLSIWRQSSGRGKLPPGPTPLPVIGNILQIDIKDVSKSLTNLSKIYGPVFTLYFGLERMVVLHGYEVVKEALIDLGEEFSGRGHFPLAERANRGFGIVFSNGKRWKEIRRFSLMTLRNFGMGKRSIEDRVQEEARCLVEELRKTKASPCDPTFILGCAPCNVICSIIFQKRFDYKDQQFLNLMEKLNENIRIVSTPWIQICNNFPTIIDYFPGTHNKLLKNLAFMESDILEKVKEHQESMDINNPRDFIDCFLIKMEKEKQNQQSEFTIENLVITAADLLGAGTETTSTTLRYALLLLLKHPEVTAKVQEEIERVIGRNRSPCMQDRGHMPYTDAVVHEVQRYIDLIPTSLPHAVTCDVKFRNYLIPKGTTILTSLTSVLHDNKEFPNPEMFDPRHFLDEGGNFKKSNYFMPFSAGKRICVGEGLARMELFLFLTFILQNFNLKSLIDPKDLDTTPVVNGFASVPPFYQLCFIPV
compound,measurement,setting,value
Cc1ccccc1Cn1cc(C(=O)NCCN2CCCCC2)c2ncccc21,IC50,[1],> 10 µM
same,MIC,[2],> 200 µM
COc1ncnc(Cn2cc(C(=O)NCCO)c3ncccc32)c1C,IC50,[1],0.09 µM
same,MIC,[2],14 µM
COCCNC(=O)c1cn(Cc2cc(F)cnc2OC)c2cccnc12,IC50,[1],0.004 µM
same,MIC,[2],0.78 µM
Cc1cccnc1Cn1cc(C(=O)NCC2CC2)c2ncccc21,IC50,[1],0.083 µM
same,MIC,[2],27 µM
COc1ncnc(Cn2cc(C(=O)NC[C@H](C)F)c3ncc(C)cc32)c1C,IC50,[1],0.014 µM
same,MIC,[2],0.156 µM
COc1ncnc(Cn2cc(C(=O)NCCF)c3ncc(C)cc32)c1C,INH,Cytochrome P450 2D6,> 50 µM
same,INH,Cytochrome P450 2C19,> 50 µM
same,INH,Cytochrome P450 2C9,> 50 µM
same,INH,Cytochrome P450 1A2,> 50 µM
same,fraction unbound,[3],0.05
same,solubility kinetic at 24 h,[4],4 µM
same,MCC at 72 h,[5],> 100 µM
same,IC50,[1],0.003 µM
same,MBC,[6],100 µM
same,MBC,[7],< 0.39 µM
same,MIC,[2],< 0.39 µM
same,INH,Cytochrome P450 3A4,> 50 µM
same,INH,[8],> 33 µM
same,IC50,[9],0.007 µM
same,IC50,[10],> 10 µM
CCc1nc2cc(Cl)ccn2c1C(=O)NCc1ccc(N2CCN(c3ccc(F)cc3)CC2)cc1,IC50,[1],> 10 µM
same,MBC,[6],> 100 µM
same,MBC,[7],> 200 µM
same,MIC,[2],0.017 µM
COc1ncnc(Cn2cc(C(=O)NC[C@@H](C)F)c3ncccc32)c1C,MIC,[2],0.78 µM
Cc1c(Cn2cc(C(=O)NCCF)c3ncccc32)ncnc1N(C)C,IC50,[1],0.02 µM
same,MIC,[2],6.25 µM
COc1ccc(Cn2cc(C(=O)N(C)CC3CC3)c3ncccc32)cc1,IC50,[1],> 10 µM
same,MIC,[2],> 200 µM
COc1ccc(Cn2cc(C(=O)NCC3CC3)c3cnccc32)cc1,IC50,[1],1 µM
same,MIC,[2],> 200 µM
Cc1ccccc1Cn1cc(C(=O)NCC2CC2)c2ncccc21,MCC at 72 h,[5],94 µM
same,INH,[8],28 µM
COc1ncnc(Cn2cc(C(=O)NCCF)c3ncccc32)c1C,log10cfu,[11],>1.5
same,log10cfu,[12],1
same,log10cfu,[13],4
same,log10cfu,[14],1.5
same,%T>MIC,Mus musculus,25%
same,AUC at 576 h,[15],200 µM·h
same,Activity,[16],Dose-dependent effect
same,Activity,[17],Dose-dependent effect
same,INH,Cytochrome P450 2D6,> 50 µM
same,INH,Cytochrome P450 2C19,> 50 µM
same,INH,Cytochrome P450 2C9,> 50 µM
same,INH,Cytochrome P450 1A2,> 50 µM
same,fraction unbound,[3],0.098
same,solubility kinetic at 24 h,[4],8 µM
same,MCC at 72 h,[5],> 100 µM
same,IC50,[1],0.01 µM
same,MBC,[6],50 µM
same,MBC,[7],1.56 µM
same,MIC,[2],1.56 µM
same,INH,Cytochrome P450 3A4,> 50 µM
same,INH,[8],> 33 µM
same,log10cfu,[18],>1.5
same,IC50,[9],0.015 µM
same,IC50,[10],> 10 µM
O=C(NCC1CC1)c1cn(CC2CCOCC2)c2cccnc12,IC50,[1],2.5 µM
same,MIC,[2],> 100 µM
Cc1ccc(Cn2cc(C(=O)NCCF)c3ncccc32)c(C)c1,IC50,[1],0.01 µM
same,MIC,[2],1.56 µM
COc1cccc(F)c1Cn1cc(C(=O)NCC2CC2)c2ncccc21,IC50,[1],0.006 µM
same,MIC,[2],1.56 µM
Cc1ccc(Cn2cc(C(=O)NCC3CC3)c3ncccc32)cc1,IC50,[1],0.021 µM
same,MIC,[2],13.2 µM
Cc1ccc(Cn2cc(C(=O)NCCc3ccncc3)c3ncccc32)c(C)c1,IC50,[1],5.5 µM
same,MIC,[2],> 200 µM
Cc1ccc(Cn2cc(C(=O)NCC3CCC(F)(F)CC3)c3ncccc32)c(C)c1,IC50,[1],7.9 µM
same,MIC,[2],> 200 µM
COc1ncnc(Cn2cc(C(=O)NCC3CC3)c3ncccc32)c1C,AUC at 576 h,[15],200 µM·h
same,INH,Cytochrome P450 2D6,> 50 µM
same,INH,Cytochrome P450 2C19,> 50 µM
same,INH,Cytochrome P450 2C9,> 50 µM
same,INH,Cytochrome P450 1A2,> 50 µM
same,MCC at 72 h,[5],> 100 µM
same,INH,Cytochrome P450 3A4,> 50 µM
same,INH,[8],> 33 µM
COc1ncnc(Cn2cc(C(=O)NCCO)c3ncc(C)cc32)c1C [TBA-7371],INH,Cytochrome P450 2D6,> 50 µM
same,INH,Cytochrome P450 2C19,> 50 µM
same,INH,Cytochrome P450 2C9,> 50 µM
same,INH,Cytochrome P450 1A2,> 50 µM
same,MCC at 72 h,[5],> 100 µM
same,IC50,[1],0.01 µM
same,MBC,[6],> 100 µM
same,MBC,[7],0.78 µM
same,MIC,[2],1.56 µM
same,INH,Cytochrome P450 3A4,> 50 µM
same,INH,[8],> 33 µM
same,IC50,[9],0.01 µM
same,IC50,[10],> 10 µM
COc1ccc(Cn2cc(C(=O)NCC3CC3)c3ncccc32)cc1,IC50,[1],0.007 µM
same,MIC,[2],6.25 µM
Cc1cnc2c(C(=O)NCCF)cn(Cc3ncnc(N(C)C)c3C)c2c1,IC50,[1],0.037 µM
same,MIC,[2],0.78 µM

# Reference: ChEMBL document CHEMBL3108774, “Azaindoles: noncovalent DprE1 inhibitors from scaffold morphing efforts, kill Mycobacterium tuberculosis and are efficacious in vivo” (J Med Chem, 2013)
